Target: T1, human iGluR4 (Homo sapiens, UniProt P48058)
T1 construct: expressed in transfected cells; host or cells: HEK293
Test: Whole-cell voltage clamp potentiation of currents evoked by 1 mM glutamate in HEK293 cells stably expressing human iGluR4
Assay type: cell-based
Details: HEK293 cells stably expressing human iGluR4, voltage-clamped at -60mV, concentration increased in half log units, fit to the Hill equation
From the text: HEK293 cells stably expressing human iGluR4 (obtained as described in European Patent Application Publication No. EP-A1-0583917) are used in the electrophysiological characterization of AMPA receptor potentiators. The extracellular recording solution contains (in mM): 140 NaCl, 5 KCl, 10 HEPES, 1 MgCl2, 2 CaCl2, 10 glucose, pH = 7.4 with NaOH, 295 mOsm kg-1. The intracellular recording solution contains (in mM): 140 CsCl, 1 MgCl2, 10 HEPES, (N-[2-hydroxyethyl]piperazine-N1-[2-ethanesulfonic acid]) 10 EGTA (ethylene-bis(oxyethylene-nitrilo)tetraacetic acid), pH = 7.2 with CsOH, 295 mOsm kg-1. With these solutions, recording pipettes have a resistance of 2-3 MΩ. […] Responses to 1 mM glutamate are then determined in the presence of test compound. […]
In order to determine the potency of test compounds, the concentration of the test compound, both in the bathing solution and co-applied with glutamate, is increased in half log units until the maximum effect was seen. […] Reversibility of test compound activity is determined by assessing control glutamate 1mM responses. Once the control responses to the glutamate challenge are re-established, the potentiation of these responses by 100 µM cyclothiazide is determined by its inclusion in both the bathing solution and the glutamate-containing solution. In this manner, the efficacy of the test compound relative to that of cyclothiazide can be determined.

T1 sequence (P48058 21-902): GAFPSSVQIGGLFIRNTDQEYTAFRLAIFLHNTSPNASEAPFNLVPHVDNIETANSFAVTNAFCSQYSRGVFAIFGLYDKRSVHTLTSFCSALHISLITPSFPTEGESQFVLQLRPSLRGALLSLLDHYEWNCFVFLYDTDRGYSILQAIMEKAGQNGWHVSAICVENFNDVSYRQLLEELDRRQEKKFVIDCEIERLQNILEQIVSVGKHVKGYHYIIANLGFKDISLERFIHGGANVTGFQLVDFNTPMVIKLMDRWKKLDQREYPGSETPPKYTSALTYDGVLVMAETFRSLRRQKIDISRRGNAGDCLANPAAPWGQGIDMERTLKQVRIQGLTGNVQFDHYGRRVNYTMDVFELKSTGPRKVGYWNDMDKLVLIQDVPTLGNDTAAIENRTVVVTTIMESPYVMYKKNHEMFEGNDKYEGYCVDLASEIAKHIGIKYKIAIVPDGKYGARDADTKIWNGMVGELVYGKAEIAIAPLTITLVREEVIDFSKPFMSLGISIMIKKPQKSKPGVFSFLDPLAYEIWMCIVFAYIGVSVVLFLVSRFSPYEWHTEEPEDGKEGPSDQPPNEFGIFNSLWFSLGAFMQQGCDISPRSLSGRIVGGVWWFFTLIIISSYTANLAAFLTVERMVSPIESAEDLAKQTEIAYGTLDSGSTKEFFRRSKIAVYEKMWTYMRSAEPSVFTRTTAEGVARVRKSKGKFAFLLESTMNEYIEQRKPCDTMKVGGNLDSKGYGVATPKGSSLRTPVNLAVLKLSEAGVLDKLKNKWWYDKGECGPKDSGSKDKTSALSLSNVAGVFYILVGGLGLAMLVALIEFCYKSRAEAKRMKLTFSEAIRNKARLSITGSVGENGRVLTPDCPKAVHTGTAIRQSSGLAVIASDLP

EC50: 445 nM
Structure (SMILES): CC(C)S(=O)(=O)Nc1ccccc1-c1ccc(-c2ccc(-c3nnn[nH]3)cc2)cc1 [Example 77, Propane-2-sulfonic acid [4"-(1H-tetrazol-5-yl)-[1,1';4',1"]terphenyl-2-yl]-amide]

— patent publication EP1893597B1, “AMPA RECEPTOR POTENTIATORS” (ELI LILLY AND COMPANY, priority 2005, dated 2006)
